Test results reported in patent US9580430B2, “9H-pyrimido[4,5-B]indoles and related analogs as BET bromodomain inhibitors” (THE REGENTS OF THE UNIVERSITY OF MICHIGAN, priority 2014, dated 2017).

What was measured:
recombinant BRD4 BD1 = target: T1, recombinant BRD4 BD1 (Homo sapiens, UniProt O60885); assay: Competitive fluorescence-polarization (FP) binding assay, BRD4 BD1; conditions: competitive FP assay; protein 10 nM, probe […]; read-out: IC50 (nM) BRD4 BD1; further: probe 1.5 nM
T1 construct: for recombinant BRD4 BD1 and BRD4 BD2 proteins
Outline: (§1)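 FP competition with FAM-labelled probe (ZBA248 or BRD-1F) against preincubated protein/probe complex; BD1 at 10 nM and BD2 at 6 nM final, in 100 mM potassium phosphate pH 6.5, 0.01% Triton X-100. 30 min, room temperature. IC50 by nonlinear regression; Ki also derived, using probe Kd from protein saturation.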

MOLM-13 = assay: Cell growth inhibition, MOLM-13 leukemia cells (CellTiter-Glo); assay type: cell-based; conditions: Homo sapiens, MOLM-13, 96 h; 4 days; read-out: IC50 (nM) MOLM-13 Cell Line (CellTiter-Glo assay)
Description: Cell growth inhibitory activity of representative Compounds of the Disclosure was determined using CellTiter-Glo® Luminescent Cell Viability Assay. […] Cell viability was determined using the CellTiter-Glo® Luminescent Cell Viability Assay Kit (Promega, Madison, Wis.) according to the manufacture's instruction. Briefly, a volume of CellTiter-Glo® Reagent equal to the volume of cell culture medium was added to each well, and then the plates were incubated at room temperature for 10-20 minutes. The luminescent signal was measured using a Tecan Infinite M1000 multimode microplate reader (Tecan, Morrisville, N.C.). The half maximal inhibitory concentration (IC50) was calculated using the GraphPad Prism 5 software (GraphPad Software, La Jolla, Calif.).

MDA-MB-436 = assay: Cell growth inhibition, MDA-MB-436 breast cancer cells (WST-8); assay type: cell-based; conditions: Homo sapiens, MDA-MB-436, 96 h; 4 days; read-out: IC50 (nM) MDA-MB-436 Cell Line (WST assay)
Description: All the breast cancer cell lines were obtained from the ATCC. Cell viability was determined using the WST-8 (2-(2-methoxy-4-nitrophenyl)-3-(4-nitrophenyl)-5-(2,4-disulfophenyl)-2H-tetrazolium, monosodium salt) based Cell Counting-8 Kit (Dojindo Molecular Technologies, Inc., Rockville, Md.) according to the manufacture's instruction. […] The absorbance was measured at 450 nm using a SPECTRAmax PLUS plate reader (Molecular Devices, Sunnyvale, Calif.). The IC50 was calculated using the GraphPad Prism 5 software.

recombinant BRD4 BD2 = target: T2, recombinant BRD4 BD2 (Homo sapiens, UniProt O60885); assay: Competitive fluorescence-polarization (FP) binding assay, BRD4 BD2; conditions: competitive FP assay; protein 6 nM, probe […]; read-out: IC50 (nM) BRD4 BD2; further: probe 1.5 nM
T2 construct: for recombinant BRD4 BD1 and BRD4 BD2 proteins
Outline: as §1

SMILES | IC50 (recombinant BRD4 BD1) [nM] | IC50 (MOLM-13) [nM] | IC50 (MDA-MB-436) [nM] | IC50 (recombinant BRD4 BD2) [nM]
COc1cc2c(cc1-c1c(C)noc1C)[nH]c1nc(C)nc(Nc3cc(C(C)(C)C)ns3)c12 [Cpd. No. 133, 3-(tert-Butyl)-N-(7-(3,5-dimethylisoxazol-4-yl)-6-methoxy-2-methyl-9H-pyrimido[4,5-b]indol-4-yl)isothiazol-5-amine] | > 1000 | 433 | 47900 | > 1000
COc1cc2c(cc1-c1c(C)noc1C)[nH]c1nc(C)nc(Nc3cccc(Cl)c3F)c12 [Cpd. No. 217, N-(3-chloro-2-fluorophenyl)-7-(3,5-dimethylisoxazol-4-yl)-6-methoxy-2-methyl-9H-pyrimido[4,5-b]indol-4-amine] | 165 | 498 | 1930 | 68
COc1cc2c(cc1-c1c(C)noc1C)[nH]c1nc(C)nc(Nc3c(C#N)cnn3C)c12 [Cpd. No. 174, 5-((7-(3,5-dimethylisoxazol-4-yl)-6-methoxy-2-methyl-9H-pyrimido[4,5-b]indol-4-yl)amino)-1-methyl-1H-pyrazole-4-carbonitrile] | 142 | 108 | 118 | 117
COc1cc2c(cc1-c1c(C)noc1C)[nH]c1nc(C)nc(Nc3cnc4ccccn34)c12 [Cpd. No. 99, 7-(3,5-dimethylisoxazol-4-yl)-N-(imidazo[1,2-a]pyridin-3-yl)-6-methoxy-2-methyl-9H-pyrimido[4,5-b]indol-4-amine] | 47 | 206 | 307 | 87
COc1cc2c(cc1-c1c(C)noc1C)[nH]c1nc(C)nc(Nc3csc4ncccc34)c12 [Cpd. No. 103, N-(7-(3,5-dimethylisoxazol-4-yl)-6-methoxy-2-methyl-9H-pyrimido[4,5-b]indol-4-yl)thieno[2,3-b]pyridin-3-amine] | 29 | 39 | 120 | 38
COc1cc2c(cc1-c1c(C)noc1C)[nH]c1nc(C)nc(Nc3cn(C)nc3C(F)(F)F)c12 [Cpd. No. 179, 7-(3,5-dimethylisoxazol-4-yl)-6-methoxy-2-methyl-N-(1-methyl-3-(trifluoromethyl)-1H-pyrazol-4-yl)-9H-pyrimido[4,5-b]indol-4-amine] | 166 | 2080 | 330 | 116
COc1cc2c(cc1-c1c(C)noc1C)[nH]c1nc(C)nc(NC3CCCC3)c12 [Cpd. No. 113, N-cyclopentyl-7-(3,5-dimethylisoxazol-4-yl)-6-methoxy-2-methyl-9H-pyrimido[4,5-b]indol-4-amine] | 582 | 853 | 1100 | 564
COc1cc2c(cc1-c1c(C)noc1C)[nH]c1nc(C)nc(Nc3noc(C)c3C)c12 [Cpd. No. 222, N-(7-(3,5-dimethylisoxazol-4-yl)-6-methoxy-2-methyl-9H-pyrimido[4,5-b]indol-4-yl)-4,5-dimethylisoxazol-3-amine] | 183 | 629 | 731 | 276
COc1cc2c(cc1-c1c(C)noc1C)[nH]c1nc(C)nc(Nc3cc(F)cc(Cl)c3)c12 [Cpd. No. 225, N-(3-chloro-5-fluorophenyl)-7-(3,5-dimethylisoxazol-4-yl)-6-methoxy-2-methyl-9H-pyrimido[4,5-b]indol-4-amine] | 213 | 189 | 315 | 108

Continued, values first:

IC50 (recombinant BRD4 BD1) [nM] | IC50 (MOLM-13) [nM] | IC50 (MDA-MB-436) [nM] | IC50 (recombinant BRD4 BD2) [nM] | SMILES
16 | 33 | 76 | 29 | CCc1nn(CC)c(CC)c1Nc1nc(C)nc2[nH]c3cc(-c4c(C)noc4C)c(OC)cc3c12 [Cpd. No. 241, 7-(3,5-dimethylisoxazol-4-yl)-6-methoxy-2-methyl-N-(1,3,5-triethyl-1H-pyrazol-4-yl)-9H-pyrimido[4,5-b]indol-4-amine]
9.6 | 7.2 | 29.8 | 7.2 | COc1cc2c(cc1-c1c(C)noc1C)[nH]c1nc(C)nc(Nc3c4c(nn3CCO)CCC4)c12 [Cpd. No. 150, 2-(3-((7-(3,5-Dimethylisoxazol-4-yl)-6-methoxy-2-methyl-9H-pyrimido[4,5-b]indol-4-yl)amino)-5,6-dihydrocyclopenta[c]pyrazol-2(4H)-yl)ethanol]
1.6 | 11.7 | 11.2 | 3.2 | COc1cc2c(cc1-c1c(C)noc1C)[nH]c1nc(C)nc(Nc3cc(C4CC4)nn3C)c12 [Cpd. No. 121, N-(3-Cyclopropyl-1-methyl-1H-pyrazol-5-yl)-7-(3,5-dimethylisoxazol-4-yl)-6-methoxy-2-methyl-9H-pyrimido[4,5-b]indol-4-amine]
14.6 | 23.7 | 83.3 | 22.6 | COc1cc2c(cc1-c1c(C)noc1C)[nH]c1nc(C)nc(Nc3cnn4ccccc34)c12 [Cpd. No. 14, 7-(3,5-Dimethylisoxazol-4-yl)-6-methoxy-2-methyl-N-(pyrazolo[1,5-a]pyridin-3-yl)-9H-pyrimido[4,5-b]indol-4-amine]
4.4 | 11.3 | 17.5 | 2 | COc1cc2c(cc1-c1c(C)noc1C)[nH]c1nc(C)nc(Nc3c4c(nn3C)CCCC4)c12 [Cpd. No. 125, 7-(3,5-Dimethylisoxazol-4-yl)-6-methoxy-2-methyl-N-(2-methyl-4,5,6,7-tetrahydro-2H-indazol-3-yl)-9H-pyrimido[4,5-b]indol-4-amine]
16 | 76 | 57 | 17 | COc1cc2c(cc1-c1c(C)noc1C)[nH]c1nc(C)nc(Nc3cccc4ncccc34)c12 [Cpd. No. 211, 7-(3,5-dimethylisoxazol-4-yl)-6-methoxy-2-methyl-N-(quinolin-5-yl)-9H-pyrimido[4,5-b]indol-4-amine]
28.7 | 40.5 | 71 | 6.9 | COc1cc2c(cc1-c1c(C)noc1C)[nH]c1nc(C)nc(Nc3ccnn3C(C)C)c12 [Cpd. No. 175, 7-(3,5-dimethylisoxazol-4-yl)-N-(1-isopropyl-1H-pyrazol-5-yl)-6-methoxy-2-methyl-9H-pyrimido[4,5-b]indol-4-amine]
24 | 69 | 88 | 22 | COc1cc2c(cc1-c1c(C)noc1C)[nH]c1nc(C)nc(Nc3cccc4ncsc34)c12 [Cpd. No. 229, N-(7-(3,5-dimethylisoxazol-4-yl)-6-methoxy-2-methyl-9H-pyrimido[4,5-b]indol-4-yl)benzo[d]thiazol-7-amine]
23.2 | 30.7 | 81.1 | 136 | COc1cc2c(cc1-c1c(C)noc1C)[nH]c1nc(C)nc(Nc3cc(C)n(C)n3)c12 [Cpd. No. 115, N-(1,5-Dimethyl-1H-pyrazol-3-yl)-7-(3,5-dimethylisoxazol-4-yl)-6-methoxy-2-methyl-9H-pyrimido[4,5-b]indol-4-amine]
13.7 | 52.9 | 83.3 | 10.3 | CCn1ncc(C)c1Nc1nc(C)nc2[nH]c3cc(-c4c(C)noc4C)c(OC)cc3c12 [Cpd. No. 176, 7-(3,5-dimethylisoxazol-4-yl)-N-(1-ethyl-4-methyl-1H-pyrazol-5-yl)-6-methoxy-2-methyl-9H-pyrimido[4,5-b]indol-4-amine]
